Calls of active or inactive are those of the source. The rule behind the calls is not given here. Numbered stars: 1 amine (or outer) side, 2 acyl side, 3 side chain; on linkers, the order of the positions; unused ones are H or OH. Square brackets hold non-standard residues; d marks the D form. Side chains are listed from the residue outwards. Peptide text beside a SMILES is read from it. * marks the point of attachment. X3 = O=C([C@@H]1C[C@@H](n2cc(C(=O)[*:3])nn2)CN1[*:1])[*:2]; X1 = O=C([C@@H]1C[C@H](n2cc(C(=O)[*:3])nn2)CN1[*:1])[*:2]; X5 = CNC(=O)c1cn([C@@H]2C[C@@H](C(=O)[*:2])N([*:1])C2)nn1; X6 = CNC(=O)c1cn([C@H]2C[C@@H](C(=O)[*:2])N([*:1])C2)nn1; X4 = [N-]=[N+]=N[C@@H]1C[C@@H](C(=O)[*:2])N([*:1])C1; Pro(cis-4-N3) = [N-]=[N+]=N[C@@H]1CN[C@H](C(=O)O)C1; pGlu = O=C1CC[C@@H](C(=O)O)N1; X2 = NC(=O)CCCC(=O)*
Key:
[1] = Binding affinity to HLA-DQ2 expressed in EBV-transformed B cells; type: cell-based
T-cell = assay: Blockade of HLA-DQ2 specific human CD4+ T cell proliferation in presence of alpha-9-gluten peptide after 48 hrs; type: functional, cell-based

## CC(C)C[C@H](NC(=O)[C@H](CCC(N)=O)NC(=O)[C@@H](N)CC(C)C)C(=O)N[C@@H](CCC(N)=O)C(=O)N1CCC[C@H]1C(=O)N[C@@H](Cc1ccccc1)C(=O)N1C[C@@H](N=[N+]=[N-])C[C@H]1C(=O)N[C@@H](CCC(N)=O)C(=O)N1CCC[C@H]1C(=O)N[C@@H](CCC(=O)O)C(=O)N[C@@H](CC(C)C)C(=O)N1CCC[C@H]1C(=O)N[C@@H](Cc1ccc(O)cc1)C(=O)N1CCC[C@H]1C(=O)N[C@@H](CCC(N)=O)C(=O)O
[1]
  IC50: 8.6 µM

## CC(C)C[C@H](NC(=O)CN)C(=O)N[C@@H](CCC(N)=O)C(=O)N1CCC[C@H]1C(=O)N[C@@H](Cc1ccccc1)C(=O)N1C[C@@H](N=[N+]=[N-])C[C@H]1C(=O)N[C@@H](CCC(N)=O)C(=O)N1CCC[C@H]1C(=O)N[C@@H](CCC(=O)O)C(=O)N[C@@H](CC(C)C)C(=O)N1CCC[C@H]1C(=O)N[C@@H](Cc1ccc(O)cc1)C(=O)N1CCC[C@H]1C(=O)N[C@@H](CCC(N)=O)C(=O)O (H-GLQPF[Pro(cis-4-N3)]QPELPYPQ-OH)
[1]
  IC50: 9.4 µM

## CC(C)C[C@H](NC(=O)[C@H](CCC(=O)O)NC(=O)[C@@H]1CCCN1C(=O)[C@H](CCC(N)=O)NC(=O)[C@@H]1C[C@H](N=[N+]=[N-])CN1C(=O)[C@H](Cc1ccccc1)NC(=O)[C@@H]1CCCN1C(=O)[C@H](CCC(N)=O)NC(=O)[C@@H](N)CC(C)C)C(=O)N1CCC[C@H]1C(=O)N[C@@H](Cc1ccc(O)cc1)C(=O)N1CCC[C@H]1C(=O)N[C@@H](CCC(N)=O)C(=O)O (H-LQPF[Pro(cis-4-N3)]QPELPYPQ-OH)
[1]
  IC50: 6.9 µM

## CC(C)C[C@H](NC(=O)[C@@H](N)CCC(N)=O)C(=O)N[C@@H](CCC(N)=O)C(=O)N1CCC[C@H]1C(=O)N[C@@H](Cc1ccccc1)C(=O)N1CCC[C@H]1C(=O)N[C@@H](CCC(N)=O)C(=O)N1CCC[C@H]1C(=O)N[C@@H](CCC(=O)O)C(=O)N[C@@H](CC(C)C)C(=O)N1CCC[C@H]1C(=O)N[C@@H](Cc1ccc(O)cc1)C(=O)O (H-QLQPFPQPELPY-OH)
[1]
  IC50: 17.2 µM

## CC(C)C[C@H](NC(=O)[C@@H](N)CCC(N)=O)C(=O)N[C@@H](CCC(N)=O)C(=O)N1CCC[C@H]1C(=O)N[C@@H](Cc1ccccc1)C(=O)N1C[C@@H](N=[N+]=[N-])C[C@H]1C(=O)N[C@@H](CCC(N)=O)C(=O)N1CCC[C@H]1C(=O)N[C@@H](CCC(=O)O)C(=O)N[C@@H](CC(C)C)C(=O)N1CCC[C@H]1C(=O)N[C@@H](Cc1ccc(O)cc1)C(=O)N1CCC[C@H]1C(=O)N[C@@H](CCC(N)=O)C(=O)O (H-QLQPF[Pro(cis-4-N3)]QPELPYPQ-OH)
[1]
  IC50: 10.7 µM

## CC(C)C[C@H](NC(=O)CCCC(N)=O)C(=O)N[C@@H](CCC(N)=O)C(=O)N1CCC[C@H]1C(=O)N[C@@H](Cc1ccccc1)C(=O)N1C[C@@H](N=[N+]=[N-])C[C@H]1C(=O)N[C@@H](CCC(N)=O)C(=O)N1CCC[C@H]1C(=O)N[C@@H](CCC(=O)O)C(=O)N[C@@H](CC(C)C)C(=O)N1CCC[C@H]1C(=O)N[C@@H](Cc1ccc(O)cc1)C(=O)N1CCC[C@H]1C(=O)N[C@@H](CCC(N)=O)C(=O)O (X2-LQPF[Pro(cis-4-N3)]QPELPYPQ-OH)
[1]
  IC50: 7.2 µM

## CC(C)C[C@H](NC(=O)[C@@H]1CCC(=O)N1)C(=O)N[C@@H](CCC(N)=O)C(=O)N1CCC[C@H]1C(=O)N[C@@H](Cc1ccccc1)C(=O)N1CCC[C@H]1C(=O)N[C@@H](CCC(N)=O)C(=O)N1C[C@@H](N=[N+]=[N-])C[C@H]1C(=O)N[C@@H](CCC(=O)O)C(=O)N[C@@H](CC(C)C)C(=O)N1CCC[C@H]1C(=O)N[C@@H](Cc1ccc(O)cc1)C(=O)N1CCC[C@H]1C(=O)N[C@@H](CCC(N)=O)C(=O)O ([pGlu]LQPFPQ[Pro(cis-4-N3)]ELPYPQ-OH)
[1]; read-out: IC50
  IC50: 2.4 µM

## COC(=O)[C@H](Cc1ccccc1)NC(=O)c1cn([C@H]2C[C@@H](C(=O)N[C@@H](CCC(=O)O)C(=O)N[C@@H](CC(C)C)C(=O)N3CCC[C@H]3C(=O)N[C@@H](Cc3ccc(O)cc3)C(=O)N3CCC[C@H]3C(=O)N[C@@H](CCC(N)=O)C(=O)O)N(C(=O)[C@H](CCC(N)=O)NC(=O)[C@@H]3CCCN3C(=O)[C@H](Cc3ccccc3)NC(=O)[C@@H]3CCCN3C(=O)[C@H](CCC(N)=O)NC(=O)[C@H](CC(C)C)NC(=O)[C@@H]3CCC(=O)N3)C2)nn1 ([pGlu]LQPFPQ[X1]([Phe-OMe])ELPYPQ-OH)
[1]; read-out: IC50
  IC50: 2.3 µM

## COC(=O)[C@H](Cc1ccccc1)NC(=O)c1cn([C@@H]2C[C@@H](C(=O)N[C@@H](CCC(=O)O)C(=O)N[C@@H](CC(C)C)C(=O)N3CCC[C@H]3C(=O)N[C@@H](Cc3ccc(O)cc3)C(=O)N3CCC[C@H]3C(=O)N[C@@H](CCC(N)=O)C(=O)O)N(C(=O)[C@H](CCC(N)=O)NC(=O)[C@@H]3CCCN3C(=O)[C@H](Cc3ccccc3)NC(=O)[C@@H]3CCCN3C(=O)[C@H](CCC(N)=O)NC(=O)[C@H](CC(C)C)NC(=O)[C@@H]3CCC(=O)N3)C2)nn1 ([pGlu]LQPFPQ[X3]([Phe-OMe])ELPYPQ-OH)
[1]; read-out: IC50
  IC50: 3.2 µM

## CC(C)C[C@H](NC(=O)[C@@H]1CCC(=O)N1)C(=O)N[C@@H](CCC(N)=O)C(=O)N1CCC[C@H]1C(=O)N[C@@H](Cc1ccccc1)C(=O)N1CCC[C@H]1C(=O)N[C@@H](CCC(N)=O)C(=O)N1C[C@H](N=[N+]=[N-])C[C@H]1C(=O)N[C@@H](CCC(=O)O)C(=O)N[C@@H](CC(C)C)C(=O)N1CCC[C@H]1C(=O)N[C@@H](Cc1ccc(O)cc1)C(=O)N1CCC[C@H]1C(=O)N[C@@H](CCC(N)=O)C(=O)O ([pGlu]LQPFPQ[X4]ELPYPQ-OH)
[1]; read-out: IC50
  IC50: 2.3 µM

## CNC(=O)c1cn([C@@H]2C[C@@H](C(=O)N[C@@H](CCC(=O)O)C(=O)N[C@@H](CC(C)C)C(=O)N3CCC[C@H]3C(=O)N[C@@H](Cc3ccc(O)cc3)C(=O)N3CCC[C@H]3C(=O)N[C@@H](CCC(N)=O)C(=O)O)N(C(=O)[C@H](CCC(N)=O)NC(=O)[C@@H]3CCCN3C(=O)[C@H](Cc3ccccc3)NC(=O)[C@@H]3CCCN3C(=O)[C@H](CCC(N)=O)NC(=O)[C@H](CC(C)C)NC(=O)[C@@H]3CCC(=O)N3)C2)nn1 ([pGlu]LQPFPQ[X5]ELPYPQ-OH)
[1]; read-out: IC50
  IC50: 5.8 µM

## CNC(=O)c1cn([C@H]2C[C@@H](C(=O)N[C@@H](CCC(=O)O)C(=O)N[C@@H](CC(C)C)C(=O)N3CCC[C@H]3C(=O)N[C@@H](Cc3ccc(O)cc3)C(=O)N3CCC[C@H]3C(=O)N[C@@H](CCC(N)=O)C(=O)O)N(C(=O)[C@H](CCC(N)=O)NC(=O)[C@@H]3CCCN3C(=O)[C@H](Cc3ccccc3)NC(=O)[C@@H]3CCCN3C(=O)[C@H](CCC(N)=O)NC(=O)[C@H](CC(C)C)NC(=O)[C@@H]3CCC(=O)N3)C2)nn1 ([pGlu]LQPFPQ[X6]ELPYPQ-OH)
[1]; read-out: IC50
  IC50: 9 µM

## CC(C)C[C@H](NC(=O)[C@@H]1CCC(=O)N1)C(=O)N[C@@H](CCC(N)=O)C(=O)N1CCC[C@H]1C(=O)N[C@@H](Cc1ccccc1)C(=O)N1C[C@@H](N=[N+]=[N-])C[C@H]1C(=O)N[C@@H](CCC(N)=O)C(=O)N1CCC[C@H]1C(=O)N[C@@H](CCC(=O)O)C(=O)N[C@@H](CC(C)C)C(=O)N1CCC[C@H]1C(=O)N[C@@H](Cc1ccc(O)cc1)C(=O)N1CCC[C@H]1C(=O)N[C@@H](CCC(N)=O)C(=O)O ([pGlu]LQPF[Pro(cis-4-N3)]QPELPYPQ-OH)
[1]; read-out: IC50
  IC50: 3.2 µM

## COC(=O)[C@H](Cc1ccccc1)NC(=O)c1cn([C@H]2C[C@@H](C(=O)N[C@@H](CCC(N)=O)C(=O)N3CCC[C@H]3C(=O)N[C@@H](CCC(=O)O)C(=O)N[C@@H](CC(C)C)C(=O)N3CCC[C@H]3C(=O)N[C@@H](Cc3ccc(O)cc3)C(=O)N3CCC[C@H]3C(=O)N[C@@H](CCC(N)=O)C(=O)O)N(C(=O)[C@H](Cc3ccccc3)NC(=O)[C@@H]3CCCN3C(=O)[C@H](CCC(N)=O)NC(=O)[C@H](CC(C)C)NC(=O)[C@@H]3CCC(=O)N3)C2)nn1 ([pGlu]LQPF[X1]([Phe-OMe])QPELPYPQ-OH)
[1]; read-out: IC50
  IC50: 1.3 µM
T-cell
  Activity: Active

## COC(=O)[C@H](Cc1ccccc1)NC(=O)c1cn([C@@H]2C[C@@H](C(=O)N[C@@H](CCC(N)=O)C(=O)N3CCC[C@H]3C(=O)N[C@@H](CCC(=O)O)C(=O)N[C@@H](CC(C)C)C(=O)N3CCC[C@H]3C(=O)N[C@@H](Cc3ccc(O)cc3)C(=O)N3CCC[C@H]3C(=O)N[C@@H](CCC(N)=O)C(=O)O)N(C(=O)[C@H](Cc3ccccc3)NC(=O)[C@@H]3CCCN3C(=O)[C@H](CCC(N)=O)NC(=O)[C@H](CC(C)C)NC(=O)[C@@H]3CCC(=O)N3)C2)nn1 ([pGlu]LQPF[X3]([Phe-OMe])QPELPYPQ-OH)
[1]; read-out: IC50
  IC50: 29.2 µM

## CC(C)C[C@H](NC(=O)[C@@H]1CCC(=O)N1)C(=O)N[C@@H](CCC(N)=O)C(=O)N1CCC[C@H]1C(=O)N[C@@H](Cc1ccccc1)C(=O)N1C[C@H](N=[N+]=[N-])C[C@H]1C(=O)N[C@@H](CCC(N)=O)C(=O)N1CCC[C@H]1C(=O)N[C@@H](CCC(=O)O)C(=O)N[C@@H](CC(C)C)C(=O)N1CCC[C@H]1C(=O)N[C@@H](Cc1ccc(O)cc1)C(=O)N1CCC[C@H]1C(=O)N[C@@H](CCC(N)=O)C(=O)O ([pGlu]LQPF[X4]QPELPYPQ-OH)
[1]; read-out: IC50
  IC50: 5.5 µM

## CNC(=O)c1cn([C@@H]2C[C@@H](C(=O)N[C@@H](CCC(N)=O)C(=O)N3CCC[C@H]3C(=O)N[C@@H](CCC(=O)O)C(=O)N[C@@H](CC(C)C)C(=O)N3CCC[C@H]3C(=O)N[C@@H](Cc3ccc(O)cc3)C(=O)N3CCC[C@H]3C(=O)N[C@@H](CCC(N)=O)C(=O)O)N(C(=O)[C@H](Cc3ccccc3)NC(=O)[C@@H]3CCCN3C(=O)[C@H](CCC(N)=O)NC(=O)[C@H](CC(C)C)NC(=O)[C@@H]3CCC(=O)N3)C2)nn1 ([pGlu]LQPF[X5]QPELPYPQ-OH)
[1]; read-out: IC50
  IC50: 5.8 µM

## CNC(=O)c1cn([C@H]2C[C@@H](C(=O)N[C@@H](CCC(N)=O)C(=O)N3CCC[C@H]3C(=O)N[C@@H](CCC(=O)O)C(=O)N[C@@H](CC(C)C)C(=O)N3CCC[C@H]3C(=O)N[C@@H](Cc3ccc(O)cc3)C(=O)N3CCC[C@H]3C(=O)N[C@@H](CCC(N)=O)C(=O)O)N(C(=O)[C@H](Cc3ccccc3)NC(=O)[C@@H]3CCCN3C(=O)[C@H](CCC(N)=O)NC(=O)[C@H](CC(C)C)NC(=O)[C@@H]3CCC(=O)N3)C2)nn1 ([pGlu]LQPF[X6]QPELPYPQ-OH)
[1]; read-out: IC50
  IC50: 4.6 µM
